Test results taken from patent publication US9345742B2, “Aminostatin derivatives for the treatment of arthrosis” (MERCK PATENT GMBH, priority 2011, dated 2016).
Numbered stars: 1 amine (or outer) side, 2 acyl side, 3 side chain; on linkers, the order of the positions; unused ones are H or OH. Square brackets hold non-standard residues; d marks the D form. Peptide text beside a SMILES is read from it. * marks the point of attachment. X1 = N[C@@H](CC(=O)[*:2])[C@H](Cc1ccccc1)N[*:1]; Isovaleryl = CC(C)CC(=O)*

Tests used:
[1] = target: cathepsin D isolated from the human liver (Homo sapiens (Human), UniProt P07339); test: In-vitro fluorescence assay for identification of cathepsin D inhibitors; type: biochemical; conditions: cathepsin D 1.4 nM, pH 5.5; read-out: CatD assay IC50-
Chain of cathepsin D isolated from the human liver (P07339 65-161): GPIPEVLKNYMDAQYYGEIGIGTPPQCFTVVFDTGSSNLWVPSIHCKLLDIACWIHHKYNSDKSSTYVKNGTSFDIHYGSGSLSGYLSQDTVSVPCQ
Chain of cathepsin D isolated from the human liver (P07339 169-412): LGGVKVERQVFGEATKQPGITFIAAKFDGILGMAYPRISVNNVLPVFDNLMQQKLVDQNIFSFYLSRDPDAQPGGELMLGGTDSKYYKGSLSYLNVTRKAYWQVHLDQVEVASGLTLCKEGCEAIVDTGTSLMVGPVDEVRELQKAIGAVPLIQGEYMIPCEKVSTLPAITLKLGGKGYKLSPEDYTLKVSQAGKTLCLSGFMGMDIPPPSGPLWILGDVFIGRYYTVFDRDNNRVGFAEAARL
Procedure, shortened: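 Human liver cathepsin D (1.4 nM final) preincubated 10 min at room temperature with serially diluted compounds in 100 mM sodium acetate pH 5.5, 1.25% DMSO, 0.25% CHAPS. Reaction started with 5 μM MCA/Dnp-quenched peptide substrate. Fluorescence increase (ex 340/em 450 nm) over 60 min at room temperature compared with compound-free wells.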

rat knee joint = test: Carrageenan (CAR)-induced knee joint inflammation: swelling and thermal hyperalgesia (Hargreaves test); type: in vivo; conditions: intra-articular administration 30 minutes before CAR
Method: In order to induce an inflammation reaction, a carrageenan solution (CAR, 1%, 50 μl) was injected intra-articularly on one side into a rat knee joint. The uninjected side was used for control purposes. Six animals per group were used. The […] was determined by means of a micrometer screw (medial-lateral on the knee joint), and the thermal hyperalgesia was determined by means of a directed infrared light source by the Hargreaves method (Hargreaves et al., 1988) on the sole of the foot. Since the site of inflammation (knee joint) is different from the site of measurement (paw sole), use is made here of the term secondary thermal hyperalgesia, the mechanism of which is of importance for the discovery of effective analgesics.
Experimental description of thermal hyperalgesia (Hargreaves test): the experimental animal is placed in a plastic chamber on a quartz sheet. Before testing, the experimental animal is firstly given about 5-15 minutes time to familiarise itself with the environment. As soon as the experimental animal no longer moves so frequently after the familiarisation phase (end of the exploration phase), the infrared light source, whose focus is in the plane of the glass bottom, is positioned directly beneath the rear paw to be stimulated. An experiment run is then started by pressing the button: infrared light results in an increase in the skin temperature of the rear paw. The experiment is terminated either by the experimental animal raising the rear paw (as an expression of the pain threshold being reached) or by automatic switching-off of the infrared light source when a prespecified maximum temperature has been reached. Light reflected by the paw is recorded as long as the experimental animal sits still. Withdrawal of the paw interrupts this reflection, after which the infrared light source is switched off and the time from switching on to switching off is recorded. The instrument is calibrated in such a way that the infrared light source increases the skin temperature to about 45 degrees Celsius in 10 s (Hargreaves et al. 1988). […]

[2] = Stability in bovine synovial fluid; type: in vitro ADME; conditions: 1 μM, 48 h at 37° C.
Method: In order to check the stability of individual compounds, a pool of four different bovine synovial fluids is mixed. To this end, about 1 ml per SF is used. The mixture is prepared directly in a 5 ml glass vessel. The SFs are mixed thoroughly, but carefully. No air bubbles or foam should form. To this end, a vortex unit is used at the lowest speed. The compounds to be tested are tested in an initial concentration (unless required otherwise) of 1 μM. After addition of the substance, the batch is again mixed thoroughly and carefully. For visual monitoring, all SF batches are photographed, and the pictures are filed in the eLabBio file for the corresponding experiment. […] The batches are incubated in the incubator for 48 h at 37° C. and 7.5% CO2.
The sampling is carried out after the pre-agreed times (unless required otherwise, see below). 200 μl of the SF are removed from the mixture per time and transferred directly into a 0.5 ml “low-binding” Eppendorf vessel. “Low-binding” Eppendorf vessels are used in order to minimise interaction of the substances with the plastic of the vessels. 200 μl of acetonitrile have already been introduced into the Eppendorf vessel, so that a 1+1 mixture of the SF forms thereafter. This simplifies the subsequent analysis, but precipitation of protein may occur immediately after addition of the SF. This should be noted on the protocol. The 0 h sample is taken immediately after addition of the substance. This corresponds to the 100% value in the stability calculation. Ideally, the concentration employed should be retrieved here. The samples can be frozen at −20° C. • 0 h • 6 h • 24 h • 48 h
The negative control used is SF without substance. The positive control used is SF with 1 μM of substance. This corresponds to the 0 h value and thus 100% stability.
The concentrations measured (ng/ml) are plotted against the time in a graph (GraphPad Prism®). The percentage stability of the substance is determined here. The 100% value used is the initial value in the SF at time 0 h. The data are stored in eLabBio under the respective experiment number and reported in the MSR database (as percent stability after the corresponding incubation times).

recombinant human renin = recombinant human renin (Homo sapiens (Human), UniProt P00797); test: In-vitro fluorescence assay for identification of renin-inhibitory activity; type: biochemical; conditions: recombinant human renin 10 nM, pH 7.2; read-out: Renin selectivity IC50
Chain of recombinant human renin (P00797 67-406): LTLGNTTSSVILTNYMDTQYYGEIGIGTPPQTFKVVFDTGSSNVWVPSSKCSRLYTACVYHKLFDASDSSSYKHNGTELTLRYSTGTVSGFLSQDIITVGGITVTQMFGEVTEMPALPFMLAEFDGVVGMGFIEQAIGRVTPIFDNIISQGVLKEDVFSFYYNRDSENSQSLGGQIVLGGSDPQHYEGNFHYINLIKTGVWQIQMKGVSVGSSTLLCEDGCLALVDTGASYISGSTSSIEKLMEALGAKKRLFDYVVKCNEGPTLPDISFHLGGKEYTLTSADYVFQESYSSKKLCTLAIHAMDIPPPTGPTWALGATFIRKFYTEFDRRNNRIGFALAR
Procedure, shortened: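 Recombinant human renin (10 nM) pre-incubated 15 min at RT with serially diluted compound in 50 mM Mops pH 7.2, 1.5% DMSO, 0.1% Igepal, 0.5% BSA; Edans/Dabcyl FRET peptide (5 µM final) added, 60 min at 37 °C; cleavage read as fluorescence increase (ex 340/em 495 nm) against no-compound wells.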

bovine explants = test: Cartilage explant assay (pH-induced cartilage degradation, GAG liberation); type: cell-based; conditions: Bos taurus, 72 h, pH 5.5, 3 days
Text: In order to investigate the effect of potential cathepsin D inhibitors on cartilage degradation, a pH-induced model based on bovine explants is used. The pH of the medium in which the explants are cultivated is matched here to the pathophysiological pH of an arthrotic knee. This pH is pH 5.5. In this ex vivo model, potential cathepsin D inhibitors are subsequently investigated for their action with respect to stopping of the cartilage degradation process. If the cartilage is destroyed, glycosaminoglycans (GAGs) are released into the cell culture supernatant. The amount of GAGs liberated can be determined quantitatively with the aid of DMMB (dimethylmethylene blue hydrochloride). If sulfated GAGs are detected using dimethylmethylene blue hydrochloride, the decrease in the absorption at 633 nm is utilised. […] In order to determine the concentration, a calibration line is also recorded using chondroitin sulfate.
The bovine explants are firstly prepared. The induction of the cartilage degradation is carried out in 96-multiwell plates. One explant is cultivated per well. In each case, 200 μl of DMEM (incubation medium pH 5.5) without FBS+30 μg/ml of ascorbic acid are added. Thus negative control, explants (n=4) are incubated at pH 7.4 (without FBS). This control is not included in the calculation of the data, but instead ensures that the pH change has the desired effect on the liberation of GAG. At this point, the substances to be tested are added. No preincubation of the explants is carried out. The explants are cultivated with the corresponding substances for 3 days in the incubator at 37° C. and 7.5% CO2.
In order to investigate the effect of cathepsin D inhibitors on the liberation of GAG (glycosaminoglycan), the substances are employed in the desired concentration and cultivated for 3 days. The compounds to be tested are tested in a first experiment in a concentration of 1 μM and 1% of DMSO. Substances which have an effect of >50% on the liberation of GAG (this corresponds to <50% of the control in the Assay Explorer) are tested in the next experiment at 100 nM and 1% of DMSO. Substances which have an effect of >50% on the liberation of GAG under these conditions (this corresponds to <50% of the control in the Assay Explorer) are tested in a concentration/effect relationship. The compounds here are investigated in the following concentrations: 30 μM, 10 μM, 3 μM, 1 μM, […], 0.1 μM, 0.03 μM, 0.01 μM.
The positive control used is pepstatin A with a concentration of 0.01 μM. The assay window is defined by the control (pH 5.5), defined as 0% effect, and the control pH 5.5+0.01 μM pepstatin A, defined as 100% effect. After incubation for 3 days, the cell culture supernatants are collected and stored at −20° C. or measured directly. The amount of liberated GAG is measured photometrically.
The effect (1 value) of the respective substance in % based on the positive control (pH 5.5+0.01 μM pepstatin A) and the negative control (pH 5.5) is reported for concentrations of 1 μM and 100 nM. The value represents the average of 4 replicants. In the determination of a concentration/effect relationship, an IC50 value is reported to the database (Assay Explorer).
The cell culture supernatants (200 μl) are either measured directly or stored at −20° C. In order to ensure an accurate determination of the concentration (μg/ml of GAG in the supernatant) of GAG, the measurement values must be located in the linear region of the standard curve. In order to ensure this, various dilutions are routinely introduced (1/5, 1/10, 1/20, 1/40). The dilutions are prepared with medium and introduced automatically (Hamilton) into a 384-well plate (15 μl). 60 μl of DMMB solution are likewise added automatically (or using a multichannel pipette). A rapid colour reaction occurs, which is subsequently measured at 633 nm using a plate reader (for example Envision).

Structure (SMILES) | IC50 [1] [nM] | CAR-induced swelling of joint (rat knee joint) | Stability in synovial fluid [2] | further results
CC[C@H](C)[C@H](NC(=O)C[C@H](N)[C@H](Cc1ccccc1)NC(=O)[C@@H](NC(=O)[C@H](CC(C)C)NC(=O)CC(C)C)C(C)C)C(=O)N[C@H](C(=O)O)C(C)C [Compound 23, (S)-2-[(2S,3S)-2-((3S,4S)-3-Amino-4-{(S)-3-methyl-2-[(S)-4-methyl-2-(3-methylbutyrylamino)pentanoylamino]-butyrylamino}-5-phenylpentanoylamino)-3-methyl-pentanoylamino]-3-methylbutyric acid] (Isovaleryl-LV[X1]IV-OH) | 50 | no influence on inflammatory swelling |  | thermal hyperalgesia (rat knee joint; Hargreaves test): exerts an anti-hyperalgesic action
CC[C@H](C)[C@H](NC(=O)C[C@H](N)[C@H](Cc1ccccc1)NC(=O)[C@@H](NC(=O)[C@H](CC(C)C)NC(=O)CC(C)C)C(C)C)C(=O)NCCc1ccccc1 [Compound 24, N-((1S,2S)-2-Methyl-1-phenethyl-carbamoylbutyl)-(S)-3-amino-4-{(S)-(S)-3-methyl-2-[(S)-4-methyl-2-(3-methylbutyryl-amino)pentanoylamino]butyrylamino}-5-phenylpentanamide] |  |  | stable | IC50 (recombinant human renin): > 30 µM
CC[C@H](C)[C@H](NC(=O)C[C@H](N)[C@H](Cc1ccccc1)NC(=O)[C@@H](NC(=O)[C@H](Cc1ccccc1)NC(=O)CC(C)C)C(C)C)C(=O)N[C@H](C(=O)O)C(C)C [Compound 33, (S)-2-[(2S,3S)-2-((3S,4S)-3-Amino-4-{(S)-3-methyl-2-[(S)-2-(3-methylbutyrylamino)-3-phenylpropionylamino]-1-oxobutyl-amino}-5-phenylpentanoylamino)-3-methylpentanoylamino]-3-methyl-butyric acid] (Isovaleryl-FV[X1]IV-OH) |  |  | stable | IC50 (bovine explants): 2.64 nM
C[C@]12C=CC(=O)C=C1CC[C@H]1[C@@H]3C[C@@H](O)[C@](O)(C(=O)CO)[C@@]3(C)C[C@H](O)[C@@]12F [TAC, Triamcinolone, reference compound] |  | capable of reducing the CAR-induced swelling |  | 
CC[C@H](C)[C@H](NC(=O)C[C@H](N)[C@H](Cc1ccccc1)NC(=O)[C@@H](NC(=O)[C@H](CC(C)C)NC(=O)CC(C)C)C(C)C)C(=O)Nc1ccn(C)n1 [Compound 27, N-[(1S,2S)-2-Methyl-1-(1-methyl-1H-pyrazol-3-ylcarbamoyl)butyl]-(S)-3-amino-4-{(S)-(S)-3-methyl-2-[(S)-4-methyl-2-(3-methylbutyrylamino)pentanoylamino]-butyrylamino}-5-phenylpentanamide] | 46 |  | stable | 
